{
  "source": "ChEMBL document CHEMBL1149901",
  "about": "“Complex sesquiterpenoids with tyrosinase inhibitory activity from the leaves of Chloranthus tianmushanensis” (J Nat Prod, 2008)",
  "note": "Activity calls are given as the source filed them. No cut-off for these calls is given here.",
  "data": [
    {"biological_target": "T1, Tyrosinase (Agaricus bisporus) (UniProt O42713)", "T1 sequence (whole entry)": "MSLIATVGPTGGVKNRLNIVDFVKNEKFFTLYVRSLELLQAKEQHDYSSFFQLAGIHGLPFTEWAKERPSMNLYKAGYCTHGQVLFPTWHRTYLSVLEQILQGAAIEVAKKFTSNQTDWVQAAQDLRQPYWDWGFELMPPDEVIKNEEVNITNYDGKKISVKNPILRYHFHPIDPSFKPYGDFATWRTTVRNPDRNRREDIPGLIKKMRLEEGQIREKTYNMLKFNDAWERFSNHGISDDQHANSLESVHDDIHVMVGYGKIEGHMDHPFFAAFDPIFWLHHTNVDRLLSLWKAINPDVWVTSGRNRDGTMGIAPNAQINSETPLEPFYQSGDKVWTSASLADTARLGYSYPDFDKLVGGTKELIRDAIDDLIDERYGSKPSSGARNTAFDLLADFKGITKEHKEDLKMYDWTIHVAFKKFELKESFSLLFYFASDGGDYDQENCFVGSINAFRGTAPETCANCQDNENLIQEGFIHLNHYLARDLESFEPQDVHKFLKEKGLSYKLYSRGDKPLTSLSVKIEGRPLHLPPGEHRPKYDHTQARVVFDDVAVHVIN", "description": "Inhibition of Mushroom tyrosinase", "values": [
      {"smiles": "CC1=C2C/C=C(\\C)CC/C=C(\\C)C[C@@H]2OC1=O", "Activity": "inactive"},
      {"smiles": "C=C1CCC[C@]2(C)C[C@]3(O)OC(=O)C(C)=C3C[C@@H]12", "Activity": "inactive"},
      {"smiles": "C=C1[C@H]2C[C@H]2[C@]2(C)C=C3OC(=O)C(C)=C3C[C@@H]12", "Activity": "inactive"},
      {"smiles": "C/C1=C\\Cc2c(C)coc2C/C(C)=C/CC1", "Activity": "inactive"}
    ]},
    {"biological_target": "T2, Tyrosinase (Agaricus bisporus, UniProt O42713)", "T2 sequence (O42713 whole entry)": "T1 sequence (whole entry)", "units": {"IC50": "µM"}, "description": "Inhibition of Mushroom tyrosinase", "values": [
      {"smiles": "CO[C@@]12OC(=O)C(C)=C1C1=C3[C@](C)([C@@H]4C[C@@H]4[C@@]3(O)C[C@@H]3[C@]14OC(=O)C1=C4C[C@H]4[C@](O)(COC(=O)/C(C)=C/COC(=O)CCC(=O)OC1)[C@H]1C[C@H]1[C@]34C)[C@H]2O", "IC50": 312},
      {"smiles": "CC1=C2C3=C4[C@](C)([C@@H]5C[C@@H]5[C@@]4(O)C[C@@H]4[C@]35OC(=O)C3=C5C[C@H]5[C@](O)(COC(=O)/C(C)=C/COC(=O)CCC(=O)OC3)[C@H]3C[C@H]3[C@]45C)[C@@H](O)[C@]2(O)OC1=O", "note": "[TIANMUSHANOL]", "IC50": 358}
    ]}
  ]
}
